According to the supplement of paper PMC10307832:

Assays:
Test in all cases: relative viability (nuclei count vs DMSO), 5 days (fraction); higher = more cells survive
IDH-C35 + Foretinib = compound: Cc1ccccc1C(C(=O)NC1CCCCC1)N(C(=O)Cn1ccnc1C)c1cccc(F)c1 [IDH-C35] + COc1cc2c(Oc3ccc(NC(=O)C4(C(=O)Nc5ccc(F)cc5)CC4)cc3F)ccnc2cc1OCCCN1CCOCC1 [Foretinib] (partner 0.25 µM)
How it was run: (§1)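 Lung cancer cell lines in 1536-well plates were dosed by pin tool the day after seeding, either with one drug alone or with a fixed anchor-drug dose plus five library-drug doses (not always all listed) in √10 steps. After 5 days, cells were fixed and their nuclei stained in one step (final 0.05% Triton X-100, 1% formaldehyde, 1 ug/ml Hoechst), then counted on 4× images. Relative viability is the nuclei count in treated wells divided by that in vehicle wells. Values are medians of duplicate plates.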

IDH-C35 + Pemetrexed = compound: Cc1ccccc1C(C(=O)NC1CCCCC1)N(C(=O)Cn1ccnc1C)c1cccc(F)c1 [IDH-C35] + Nc1nc2[nH]cc(CCc3ccc(C(=O)N[C@@H](CCC(=O)O)C(=O)O)cc3)c2c(=O)[nH]1 [Pemetrexed] (partner 0.2 µM)
How it was run: as §1

IDH-C35 + Trametinib = compound: Cc1ccccc1C(C(=O)NC1CCCCC1)N(C(=O)Cn1ccnc1C)c1cccc(F)c1 [IDH-C35] + CC(=O)Nc1cccc(-n2c(=O)n(C3CC3)c(=O)c3c(Nc4ccc(I)cc4F)n(C)c(=O)c(C)c32)c1 [Trametinib] (partner 0.02 µM)
How it was run: as §1

[1] = compound: CC1=C(C(=NN1)C)CC2=C(C3=C(S2)N(C(=O)N(C3=O)C)CC(C)C)C(=O)N4C[C@@H](CO4)O + Nc1nc2[nH]cc(CCc3ccc(C(=O)N[C@@H](CCC(=O)O)C(=O)O)cc3)c2c(=O)[nH]1 [Pemetrexed] (partner 0.2 µM)
How it was run: as §1

Cell Line | relative viability (IDH-C35 + Foretinib; first compound 0.08 µM) | relative viability (IDH-C35 + Foretinib; first compound 0.253 µM) | relative viability (IDH-C35 + Foretinib; first compound 0.8 µM) | relative viability (IDH-C35 + Foretinib; first compound 2.53 µM) | relative viability (IDH-C35 + Foretinib; first compound 8 µM) | relative viability (IDH-C35 + Pemetrexed; first compound 0.08 µM) | relative viability (IDH-C35 + Pemetrexed; first compound 0.253 µM) | relative viability (IDH-C35 + Pemetrexed; first compound 0.8 µM) | relative viability (IDH-C35 + Pemetrexed; first compound 2.53 µM) | relative viability (IDH-C35 + Pemetrexed; first compound 8 µM) | relative viability (IDH-C35 + Trametinib; first compound 0.08 µM) | relative viability (IDH-C35 + Trametinib; first compound 0.253 µM) | relative viability (IDH-C35 + Trametinib; first compound 0.8 µM) | relative viability (IDH-C35 + Trametinib; first compound 2.53 µM) | relative viability (IDH-C35 + Trametinib; first compound 8 µM) | relative viability ([1]; first compound 0.0025 µM) | relative viability ([1]; first compound 0.007906 µM) | relative viability ([1]; first compound 0.025 µM) | relative viability ([1]; first compound 0.07906 µM) | relative viability ([1]; first compound 0.25 µM)
Calu-6 | 0.884 | 0.899 | 0.908 | 0.919 | 0.868 | – | – | – | – | – | – | – | – | – | – | – | – | – | – | –
LC-2-ad | 0.917 | 0.938 | 0.904 | – | 0.908 | 0.265 | 0.285 | 0.275 | 0.266 | 0.278 | 0.87 | 0.923 | 0.954 | 0.874 | 0.905 | 0.27 | 0.25 | 0.26 | 0.285 | 0.261
CAL-12T | 1.13 | 1.22 | 1.1 | 1.01 | 1.13 | 1.23 | 1.14 | 1.37 | 1.15 | 1.12 | 0.389 | 0.434 | 0.371 | 0.36 | 0.354 | 1.28 | 1.36 | 0.956 | 1.08 | 1.38
RERF-LC-KJ | 0.941 | 0.853 | 0.968 | 0.867 | 0.888 | 0.431 | 0.492 | 0.478 | 0.481 | 0.523 | 0.846 | 0.831 | 0.868 | 0.904 | 0.779 | 0.46 | 0.468 | 0.463 | 0.511 | 0.503
NCI-H1650 | 1.11 | 1.13 | 1.23 | 0.879 | 1.14 | 0.334 | 0.4 | 0.323 | 0.428 | 0.362 | 0.548 | 0.599 | 0.614 | 0.644 | 0.504 | 0.321 | 0.406 | 0.367 | 0.369 | 0.321
BEN | 0.631 | 0.685 | 0.616 | 0.629 | 0.593 | 0.633 | 0.929 | 0.73 | 0.762 | 0.857 | 0.954 | 1.04 | 1.02 | 1.16 | 1.16 | 0.697 | 0.836 | 0.558 | 0.665 | 0.687
EMC-BAC-2 | 0.947 | 1.04 | 1.1 | 0.925 | 0.944 | 0.457 | 0.477 | 0.473 | 0.463 | 0.398 | 0.888 | 0.816 | 0.837 | 0.823 | 0.833 | 0.46 | 0.468 | 0.415 | 0.44 | 0.454
LU99A | 0.939 | 0.915 | 0.81 | 0.69 | 0.85 | 0.191 | 0.216 | 0.173 | 0.187 | 0.191 | 0.527 | 0.643 | 0.56 | 0.527 | 0.524 | 0.18 | 0.175 | 0.159 | 0.211 | 0.179
ABC-1 | 1.16 | 0.967 | 0.918 | 1.08 | 1.21 | – | – | – | – | – | – | – | – | – | – | – | – | – | – | –
NCI-H2170 | 0.98 | 0.97 | 1.1 | 0.937 | 0.951 | 0.277 | 0.341 | 0.265 | 0.267 | 0.262 | 0.855 | 0.864 | 0.882 | 0.85 | 0.93 | 0.261 | 0.274 | 0.252 | 0.248 | 0.266
NCI-H1299 | 1.1 | 1.07 | 1.01 | 1.06 | 1.09 | – | – | – | – | – | – | – | – | – | – | – | – | – | – | –
EBC-1 | 0.0931 | 0.109 | 0.0986 | 0.108 | 0.109 | – | – | – | – | – | – | – | – | – | – | – | – | – | – | –
NCI-H1792 | – | – | – | – | – | 1.03 | 0.711 | 0.721 | 0.899 | 0.919 | 0.393 | 0.338 | 0.485 | 0.405 | 0.544 | 0.932 | 0.6 | 0.768 | 0.644 | 0.719
HCC-44 | – | – | – | – | – | 0.6 | 0.639 | 0.658 | 0.633 | 0.667 | 1.01 | 1.04 | 1.09 | 1.14 | 1.04 | 0.633 | 0.643 | 0.675 | 0.599 | 0.694
A549 | 0.881 | 0.863 | 0.968 | 1.05 | 0.835 | – | – | – | – | – | – | – | – | – | – | – | – | – | – | –
NCI-H1563 | 1.01 | 1.01 | 0.872 | 0.907 | 0.774 | 0.827 | 0.803 | 0.652 | 0.854 | 0.613 | – | – | – | – | – | 0.796 | 0.795 | 0.686 | 0.742 | 0.857
IA-LM | 1.06 | 1.24 | 1.12 | 1.12 | 1.1 | – | – | – | – | – | – | – | – | – | – | – | – | – | – | –
NCI-H1703 | 0.321 | 0.335 | 0.334 | 0.367 | 0.348 | – | – | – | – | – | – | – | – | – | – | – | – | – | – | –
NCI-H727 | 0.87 | 0.693 | 1.07 | 0.832 | 0.764 | – | – | – | – | – | 0.376 | 0.357 | 0.34 | 0.393 | 0.372 | – | – | – | – | –
NCI-H1648 | – | – | – | – | – | – | 0.758 | 0.712 | 0.807 | 0.529 | – | 0.566 | 0.465 | 0.479 | 0.584 | 0.69 | 0.783 | 0.61 | 0.502 | 0.673
